Measured values taken from ChEMBL document CHEMBL1158273, “New pyranocoumarins isolated from Calophyllum lanigerum and Calophyllum teysmannii” (J Nat Prod, 1996).
pEC50, pIC50: −log10 of the molar value. The source made the active and inactive calls. The calls are words filed in the database; no cut-off is given here.

Columns and labels:
[1] = system: Human immunodeficiency virus 1; assay: Antiviral activity against HIV1 infected in human H9 cells assessed as effect on virus-induced cytopathic effect by tetrazolium/formazan assay; type: functional, organism-based; details: for pEC50: Human immunodeficiency virus 1, H9
H9 = assay: Cytotoxicity against human H9 cells; type: cell-based
[2] = Therapeutic index, ratio of IC50 for human H9 cells to EC50 for HIV1; type: cell-based; details: read-out: Ratio IC50/EC50

Row | pEC50 [1] | SMILES | Activity [1] | pIC50 (H9) | selectivity ratio [2]
1 | – | CCCC1CC(=O)Oc2c(C(=O)C(C)C(C)O)c(O)c3c(c21)OC(C)(C)C=C3 (centres undefined) [CALANOLIDE E2] | inactive | 5.60 | –
2 | – | Cc1cc(=O)oc2c3c(c4c(c12)O[C@@H](C)[C@@H](C)[C@H]4O)OC(C)(C)C=C3 [PSEUDOCARDATOLIDE C] | inactive | 5.59 | –
3 | – | CC1CC(=O)Oc2c(C(=O)C(C)C(C)O)c(O)c3c(c21)OC(C)(C)C=C3 (centres undefined) [CORDATOLIDE E] | inactive | 4.85 | –
4 | – | C/C=C(\C)C(=O)c1c(OC)cc(OC)c2c(CCC)cc(=O)oc12 | inactive | 6.00 | –
5 | 6.66 | CCCc1cc(=O)oc2c3c(c4c(c12)OC(C)(C)C=C4)O[C@@H](C)[C@H](C)[C@@H]3O [COSTATOLIDE] | – | 5.01 | 44.5
6 | 5.55 | CCCc1cc(=O)oc2c3c(c4c(c12)OC(C)(C)C=C4)O[C@@H](C)[C@@H](C)[C@@H]3O [CALANOLIDE F] | – | 4.90 | 4.5
